Assay results as given in patent publication US5583227A, “Antiulcer compounds having a substituted alkynyl or quinoxaline nucleus and methods of making thereof” (Mochida Pharmaceutical Co. Ltd., priority 1994, dated 1996).
Like-named read-outs stand apart in the source and are kept apart here.

Target: T1, H^+,K^+ adenosine triphosphatase (Sus scrofa, UniProt P19156)
T1 construct: hog stomach was homogenized and subjected to ultracentrifugation to obtain a microsome fraction; from tissue; host or cells: hog stomach, microsome fraction (discontinuous Ficoll gradient)
Experiment: H+,K+ adenosine triphosphatase inhibition (proton pump inhibition)
Assay type: biochemical, hog
Method: Proton pump inhibition was evaluated by the H^+,K^+ adenosine triphosphatase (to be referred to as "H^+,K^+ ATPase" hereinafter)inhibition.
That is, hog stomach was homogenized and subjected to ultracentrifugation to obtain a microsome fraction, and the microsomes were subjected to discontinuous density gradient ultracentrifugation using 0 and 9% Ficoll solutions to obtain a fraction containing H^+,K^+ ATPase. The H^+,K^+ ATPase activity was determined by measuring the released inorganic phosphorus using ATP as the substrate and an inorganic phosphorus measuring reagent PiSET(IATRON) manufactured by IATRON.

[1] = H+,K+ ATPase fraction from hog stomach microsomes, ATP substrate, released inorganic phosphorus, read-out: Enzyme inhibition IC50 value (converted)

T1 sequence (P19156 2-1034 limits assumed): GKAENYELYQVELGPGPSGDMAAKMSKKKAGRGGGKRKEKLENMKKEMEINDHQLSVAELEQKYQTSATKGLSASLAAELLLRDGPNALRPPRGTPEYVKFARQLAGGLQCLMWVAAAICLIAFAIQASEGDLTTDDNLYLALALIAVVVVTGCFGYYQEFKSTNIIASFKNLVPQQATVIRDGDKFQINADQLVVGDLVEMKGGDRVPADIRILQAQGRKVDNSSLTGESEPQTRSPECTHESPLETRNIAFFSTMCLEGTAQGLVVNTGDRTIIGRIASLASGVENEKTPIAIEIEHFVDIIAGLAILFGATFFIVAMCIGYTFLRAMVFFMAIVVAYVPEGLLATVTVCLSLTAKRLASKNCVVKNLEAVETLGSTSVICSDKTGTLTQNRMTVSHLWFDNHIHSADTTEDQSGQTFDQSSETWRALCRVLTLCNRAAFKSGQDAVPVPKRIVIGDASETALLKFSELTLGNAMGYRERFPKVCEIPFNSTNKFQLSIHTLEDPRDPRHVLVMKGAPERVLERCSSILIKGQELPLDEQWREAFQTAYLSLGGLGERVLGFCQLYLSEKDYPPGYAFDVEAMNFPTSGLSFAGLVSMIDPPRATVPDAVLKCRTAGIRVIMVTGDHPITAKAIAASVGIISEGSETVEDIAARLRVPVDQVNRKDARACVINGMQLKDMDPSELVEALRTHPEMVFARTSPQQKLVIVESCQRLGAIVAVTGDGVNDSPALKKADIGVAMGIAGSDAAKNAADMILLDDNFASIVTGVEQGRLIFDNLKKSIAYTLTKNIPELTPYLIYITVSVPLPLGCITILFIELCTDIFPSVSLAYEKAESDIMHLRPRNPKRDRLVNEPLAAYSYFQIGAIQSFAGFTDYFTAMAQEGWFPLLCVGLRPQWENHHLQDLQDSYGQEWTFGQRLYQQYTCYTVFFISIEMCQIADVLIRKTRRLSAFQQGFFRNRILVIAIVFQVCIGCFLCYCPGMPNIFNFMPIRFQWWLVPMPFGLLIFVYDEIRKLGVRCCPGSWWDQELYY
T1 sequence (P18434 whole entry partner): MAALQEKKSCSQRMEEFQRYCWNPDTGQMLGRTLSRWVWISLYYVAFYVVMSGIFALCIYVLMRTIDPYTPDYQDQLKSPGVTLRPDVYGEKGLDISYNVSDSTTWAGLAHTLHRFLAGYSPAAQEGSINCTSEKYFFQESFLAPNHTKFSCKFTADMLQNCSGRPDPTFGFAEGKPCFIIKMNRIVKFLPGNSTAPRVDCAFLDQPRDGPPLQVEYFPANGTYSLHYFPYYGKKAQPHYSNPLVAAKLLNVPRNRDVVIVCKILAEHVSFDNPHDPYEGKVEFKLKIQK

IC50 [1] [µM] | SMILES | IC50 [µM]
– | CCCCC#Cc1nc(C#N)c(C#N)nc1C(=O)OCC [Example 101] | 5.31
215 | CCOC(C)C#Cc1nc2ccccc2nc1Cl (stereo not shown) [Example 29, 2-chloro-3-(3-ethoxy-1-butynyl)quinoxaline] | –
29.6 | CCOCCO[C@H](C#Cc1nc2ccccc2nc1C#C[C@H](CC)OCCOCC)CC [Example 22, 2,3-bis((S)-3-(2-ethoxyethoxy)-1-pentynyl)quinoxaline] | –
– | CCCCC#Cc1nc(C#N)c(C#N)nc1C(F)(F)F [Example 102] | 3.95
16.7 | CCOCCOC(C)(C)C#Cc1nc2ccc(Cl)cc2nc1C#CC(C)(C)OCCOCC [Example 159, 6-chloro-2,3-bis(3-(2-ethoxyethoxy)-3-methyl-1-butynyl)quinoxaline] | –
87.9 | CCC(C#Cc1nc2ccccc2nc1C#CC(CC)OCCC(=O)OC)OCCC(=O)OC (stereo not shown) [Example 123] | –
18.6 | CCOCCOC(C#Cc1nc2ccc(CO)cc2nc1C#CC(CC)OCCOCC)CC (stereo not shown) [Example 151] | –
28.3 | CCC(C#Cc1nc2cccc(C)c2nc1C#CC(CC)OCCOC)OCCOC (stereo not shown) [Example 144] | –
17.1 | CCCOCCOC(C)(C)C#Cc1nc2ccccc2nc1C#CC(C)(C)OCCOCCC [Example 158, 2,3-bis(3-(2-n-propoxyethoxy)-3-methyl-1-butynyl)quinoxaline] | –
124 | CC[C@@H](C#Cc1nc2ccccc2nc1C#C[C@H](CC)OCCOC)OCCOC [Example 18, 2,3-bis((S)-3-(2-methoxyethoxy)-1-pentynyl)quinoxaline] | –
25.3 | CCOC(C)C#Cc1nc2ccc(OC)cc2nc1C#CC(C)OCC (stereo not shown) [Example 129] | –
102 | CC[C@@H](C#Cc1nc2ccccc2nc1C#C[C@@H](CC)OCCOC)OCCOC [Example 21, 2-((R)-3-(2-methoxyethoxy)-1-pentynyl)-3-((S)-3-(2-methoxyethoxy)-1-pentynyl)quinoxaline] | –
– | COCCOCC#Cc1nc2ccccc2nc1C(C)(C)C [Example 30, 2-t-butyl-3-(3-(2-methoxyethoxy)-1-propynyl)quinoxaline] | 60.3
0.613 | CSCCC#Cc1nc(C#N)c(C#N)nc1C#CCCSC [Example 95] | –
5.27 | COC(=O)c1nc(C#CC(C)OC)c(C#CC(C)OC)nc1C(=O)OC (stereo not shown) [Example 53] | –
34 | CCOC(C)C#Cc1nc2cccc(OC)c2nc1C#CC(C)OCC (stereo not shown) [Example 140] | –
9.17 | COC(C)C#Cc1nc2ccccc2nc1C#CC(C)OC (stereo not shown) [Example 111] | –
31.4 | CCOC(C)(C)C#Cc1nc2ccccc2nc1C#CC(C)(C)OCC [Example 13, 2,3-bis(3-ethoxy-3-methyl-1-butynyl)quinoxaline] | –
25.1 | CCOC(C)C#Cc1nc2cc(OC)c(OC)cc2nc1C#CC(C)OCC (stereo not shown) [Example 145] | –
1.7 | COC(C)C#Cc1nc(C#N)c(C#N)nc1C#CC(C)OC (stereo not shown) [Example 73] | –
0.344 | CCCCC#Cc1nc(C#N)c(C#N)nc1C#CCCCC [Example 89] | –
32 | COC1(C#Cc2nc3ccccc3nc2C#CC2(OC)CCCC2)CCCC1 [Example 26, 2,3-bis(2-(1-methoxycyclopentyl)ethynyl)quinoxaline] | –
54.7 | CCOCCO[C@@H](C#Cc1nc2ccccc2nc1C#C[C@@H](CC)OCCOCC)CC [Example 23, 2,3-bis((R)-3-(2-ethoxyethoxy)-1-pentynyl)quinoxaline] | –
326 | CCC(C#Cc1cnc2ccccc2n1)OCCOC (stereo not shown) [Example 127] | –
34.2 | CCOCCO[C@H](C#Cc1nc2ccccc2nc1C#C[C@@H](CC)OCCOCC)CC [Example 25, 2-((R)-3-(2-ethoxyethoxy)-1-pentynyl)-3-((S)-3-(2-ethoxyethoxy)-1-pentynyl)quinoxaline] | –
